The record followed here is patent US20250326771A1, “PIPERAZINE DERIVATIVES USEFUL IN HIV THERAPY” (VIIV HEALTHCARE COMPANY, priority 2022, published 2025).

Assay [1] has as its target cIAP2-BIR3 (Homo sapiens (Human), UniProt Q13489). As to the kind of experiment: BIR binding assay (FRET competition), cIAP2 BIR3. The note with it: for cIAP2 BIR3 vs BIR2 separation window: fold separation (FS) for cIAP2.
In assay [2] the target is cIAP1-BIR3 (Homo sapiens (Human), UniProt Q13490). As to the kind of experiment: BIR binding assay (FRET competition), cIAP1 BIR3. The note with it: for cIAP1 BIR3 vs BIR2 separation window: fold separation (FS) for cIAP1. In a few lines:
(§1)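 Compounds tested as 15-point, 3-fold series displacing 200 nM AlexaFluor647-labelled SMAC peptide from His-tagged BIR domain (cIAP1-BIR3 50 nM; cIAP1-BIR2 and cIAP2-BIR2 325 nM; XIAP-BIR3 100 nM), pH 7.4, 60 min. Eu-W1024 (2 nM) added 30 min; emission ratio fitted for IC50.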

For assay [3], the target named is cIAP2-BIR2 (Homo sapiens (Human), UniProt Q13489). Kind of assay: BIR binding assay (FRET competition), cIAP2 BIR2. An outline of the steps: as §1
Sequence of cIAP2-BIR2 (Q13489 158-242): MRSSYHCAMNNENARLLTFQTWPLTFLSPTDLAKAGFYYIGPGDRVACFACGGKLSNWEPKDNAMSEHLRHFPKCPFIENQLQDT
Assay [4] addresses XIAP-BIR2 (Homo sapiens (Human), UniProt P98170). As to the kind of experiment: BIR binding assay (FRET competition), XIAP BIR2. The conditions noted are these: FRET competition; read-out: XIAP BIR2 (pIC50) (converted). The method, then:
The BIR domain binding assays are FRET based competition assays that utilize His-tagged versions of each of the BIR2 and BIR3 domains from cIAP1, cIAP2, and XIAP (each domain assayed separately) each at a custom optimal concentration and a probe, 200 nM SMAC/DIABLO peptide AVPIAQKSE labelled with AlexaFluor647 (part #crb 1110326h, Discovery Peptides). The assay is conducted in 50 mM HEPES, […], 1 mM CHAPS, 5% Glycerol, 1 mM DTT, in dI water with a final pH of 7.4 and final volume of 20 uL. Final protein domain concentrations are: 50 nM cIAP1-BIR3 (Part #APT-11-370 Reaction Biology), 100 nM XIAP-BIR3 (Part #APT-11-351 Reaction Biology), 200 nM XIAP-BIR2 (Part #APT-11-470 Reaction Biology), 325 nM cIAP2-BIR2 (Part #APT-11-489 Reaction Biology), 50 nM cIAP2-BIR3 (Part #APT-11-372 Reaction Biology), 325 nM cIAP1-BIR2 (Part #APT-11-487 Reaction Biology). Compounds were plated using a HP Tecan D300 printer in a final total volume of 202 nl and DMSO concentration normalized across the 15-point, 3-fold dilution series. Peptide and probe were prepared at 2× relative to the concentrations above in binding buffer, 10 uL added to the prepared compound plates, and incubated for 60 minutes. LANCE Eu-W1024 (part #AD0401 Perkin Elmer #, vendor) was prepared at 2× concentration in binding buffer for final concentration of 2 nM, 10 uL added to each well, and plates incubated for 30 minutes. Plates were read on an ENVISION multifunction plate reader with […] laser excitation to obtain the 615 nm/665 nm emission ratio as indicative of probe:protein proximity. Data was analyzed using GraphPad PRISM and curves fit using log(inhibitor) vs. response—Variable slope (four […] method to obtain IC50 and pIC50 values.

Assay [5] has as its system Jurkat HIV-luciferase clones. As to the kind of experiment: Jurkat latency reversal assay. The format is cell-based. The note with it: Homo sapiens, 48 h; Jurkat latency reversal assay potency; read-out: Jurkat pEC50 (converted). An outline of the steps:
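Compounds are titrated 3-fold over 14 points from 10 μM in duplicate at 0.5% DMSO. Clones C16, 115 and N6, grown with 500 nM EFV, are co-incubated for 48 h at 37° C. Virally driven luciferase is read by luminescence, and EC50 and maximal percent activation versus vehicle come from a four-parameter model.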

Assay [6] concerns the target cIAP1-BIR2 (Homo sapiens (Human), UniProt Q13490). Kind of assay: BIR binding assay (FRET competition), cIAP1 BIR2. In a few lines:
as §1

Assay [7] addresses XIAP-BIR3 (Homo sapiens (Human), UniProt P98170). As to the kind of experiment: BIR binding assay (FRET competition), XIAP BIR3. The note with it: for XIAP BIR3 vs BIR2 separation window: fold separation (FS) for XIAP. An outline of the steps: as §1

Sequence of cIAP1-BIR2 (Q13490 173-257): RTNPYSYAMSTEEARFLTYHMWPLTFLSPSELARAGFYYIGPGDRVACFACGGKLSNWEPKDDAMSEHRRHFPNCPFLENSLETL
Sequence of cIAP2-BIR3 (Q13489 238-349): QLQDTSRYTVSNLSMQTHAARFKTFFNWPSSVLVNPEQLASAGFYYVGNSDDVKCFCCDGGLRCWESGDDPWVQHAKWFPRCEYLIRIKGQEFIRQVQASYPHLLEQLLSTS
Sequence of XIAP-BIR2 (P98170 124-240): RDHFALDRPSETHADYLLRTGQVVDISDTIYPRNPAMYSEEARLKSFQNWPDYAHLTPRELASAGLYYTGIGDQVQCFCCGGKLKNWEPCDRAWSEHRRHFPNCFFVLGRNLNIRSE
Sequence of XIAP-BIR3 (P98170 241-356): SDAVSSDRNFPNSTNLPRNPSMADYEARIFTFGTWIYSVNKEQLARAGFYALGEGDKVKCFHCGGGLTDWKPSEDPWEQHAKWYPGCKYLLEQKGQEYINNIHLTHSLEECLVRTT
Sequence of cIAP1-BIR3 (Q13490 253-363): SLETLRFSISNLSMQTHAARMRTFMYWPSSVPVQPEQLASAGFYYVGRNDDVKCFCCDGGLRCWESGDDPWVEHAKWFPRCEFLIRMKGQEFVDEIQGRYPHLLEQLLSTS

For `C[C@@H]1CN(CC(=O)N2CC(C)(C)c3[nH]c(=O)c(Cc4ccc(F)cc4)cc32)[C@@H](CN2CCO[C@H](C(=O)NCCN3CCN(C(=O)[C@@H]4CN(C[C@H]5CN[C@H](C)CN5CC(=O)N5CC(C)(C)c6[nH]c(=O)c(Cc7ccc(F)cc7)cc65)CCO4)CC3)C2)CN1` [Compound 134, (S)-4-(((2R,5R)-1-(2-(6-(4-fluorobenzyl)-3,3-dimethyl-5-oxo-2,3,4,5-tetrahydro-1H-pyrrolo[3,2-b]pyridin-1-yl)-2-oxoethyl)-5-methylpiperazin-2-yl)methyl)-N-(2-(4-((S)-4-(((2R,5R)-1-(2-(6-(4-fluorobenzyl)-3,3-dimethyl-5-oxo-2,3,4,5-tetrahydro-1H-pyrrolo[3,2-b]pyridin-1-yl)-2-oxoethyl)-5-methylpiperazin-2-yl)methyl)morpholine-2-carbonyl)piperazin-1-yl)ethyl)morpholine-2-carboxamide], the IC50 in assay [1] was 7.94 to 15.8 nM; in assay [2], 15.8 to 31.6 nM; in assay [3] it was 1000 to 3160 nM; in assay [4], 10000 to 51300 nM; in assay [6], 1000 to 3160 nM; in assay [7] it was 31.6 to 501 nM. Further, the “cIAP2 BIR3 vs BIR2 separation window” value in assay [1] is “+++ (10,000>FS>1,000)”. Also, the “cIAP1 BIR3 vs BIR2 separation window” value in assay [2] is “++ (1,000>FS>100)”. Moreover, in assay [5], the EC50 was 12.6 to 63.1 nM. The “XIAP BIR3 vs BIR2 separation window” value in assay [7] is “+++ (10,000>FS>1,000)”.

With `C[C@@H]1CN(CC(=O)N2CC(C)(C)c3[nH]c(=O)c(Cc4ccc(F)cc4)cc32)[C@@H](CN2CCO[C@H](C(=O)NCCCN(C)C(=O)[C@@H]3CN(C[C@H]4CN[C@H](C)CN4CC(=O)N4CC(C)(C)c5[nH]c(=O)c(Cc6ccc(F)cc6)cc54)CCO3)C2)CN1` [Compound 135, (S)-4-(((2R,5R)-1-(2-(6-(4-fluorobenzyl)-3,3-dimethyl-5-oxo-2,3,4,5-tetrahydro-1H-pyrrolo[3,2-b]pyridin-1-yl)-2-oxoethyl)-5-methylpiperazin-2-yl)methyl)-N-(3-((S)-4-(((2R,5R)-1-(2-(6-(4-fluorobenzyl)-3,3-dimethyl-5-oxo-2,3,4,5-tetrahydro-1H-pyrrolo[3,2-b]pyridin-1-yl)-2-oxoethyl)-5-methylpiperazin-2-yl)methyl)morpholine-2-carboxamido)propyl)-N-methylmorpholine-2-carboxamide], the IC50 in assay [1] was 7.94 to 15.8 nM; in assay [2], 15.8 to 31.6 nM; in assay [3], 3160 to 10000 nM; in assay [4], 10000 to 51300 nM; in assay [6] it was 3160 to 10000 nM; in assay [7] it was 15.8 to 31.6 nM. Also, the “cIAP2 BIR3 vs BIR2 separation window” value in assay [1] was “+++ (10,000>FS>1,000)”. Further, the “cIAP1 BIR3 vs BIR2 separation window” value in assay [2] is recorded as “+++ (10,000>FS>1,000)”. The EC50 in assay [5] was 63.1 to 316 nM. Also, the “XIAP BIR3 vs BIR2 separation window” value in assay [7] is on record as “++++ (FS>10,000)”.

With `C[C@@H]1CN(CC(=O)N2CC(C)(C)c3[nH]c(=O)c(Cc4ccc(F)cc4)cc32)[C@@H](CN2CCO[C@H](C(=O)NCCCCCNC(=O)[C@@H]3CN(C[C@H]4CN[C@H](C)CN4CC(=O)N4CC(C)(C)c5[nH]c(=O)c(Cc6ccc(F)cc6)cc54)CCO3)C2)CN1` [Compound 136, (2S,2′S)-N,N′-(pentane-1,5-diyl)bis(4-(((2R,5R)-1-(2-(6-(4-fluorobenzyl)-3,3-dimethyl-5-oxo-2,3,4,5-tetrahydro-1H-pyrrolo[3,2-b]pyridin-1-yl)-2-oxoethyl)-5-methylpiperazin-2-yl)methyl)morpholine-2-carboxamide)], the IC50 was 7.94 to 15.8 nM in assay [1]; 7.94 to 15.8 nM in assay [2]; 1000 to 3160 nM in assay [3]; 10000 to 51300 nM in assay [4]; 1000 to 3160 nM in assay [6]; 15.8 to 31.6 nM in assay [7]. Moreover, the “cIAP2 BIR3 vs BIR2 separation window” value in assay [1] was “+++ (10,000>FS>1,000)”. For the same compound, in assay [2], the “cIAP1 BIR3 vs BIR2 separation window” value is recorded as “+++ (10,000>FS>1,000)”. In assay [5], the EC50 is 63.1 to 316 nM. Also, the “XIAP BIR3 vs BIR2 separation window” value in assay [7] is given as “++++ (FS>10,000)”.

With `C[C@@H]1CN(CC(=O)N2CC(C)(C)c3[nH]c(=O)c(Cc4ccc(F)cc4)cc32)[C@@H](CN2CCO[C@H](C(=O)NCC(O)CNC(=O)[C@@H]3CN(C[C@H]4CN[C@H](C)CN4CC(=O)N4CC(C)(C)c5[nH]c(=O)c(Cc6ccc(F)cc6)cc54)CCO3)C2)CN1` [Compound 137, (2S,2′S)-N,N′-(2-hydroxypropane-1,3-diyl)bis(4-(((2R,5R)-1-(2-(6-(4-fluorobenzyl)-3,3-dimethyl-5-oxo-2,3,4,5-tetrahydro-1H-pyrrolo[3,2-b]pyridin-1-yl)-2-oxoethyl)-5-methylpiperazin-2-yl)methyl)morpholine-2-carboxamide)], the IC50 was 7.94 to 15.8 nM in assay [1]; 7.94 to 15.8 nM in assay [2]; 1000 to 3160 nM in assay [3]; 10000 to 51300 nM in assay [4]; 1000 to 3160 nM in assay [6]; 15.8 to 31.6 nM in assay [7]. Also, in assay [1], the “cIAP2 BIR3 vs BIR2 separation window” value is “+++ (10,000>FS>1,000)”. The “cIAP1 BIR3 vs BIR2 separation window” value in assay [2] is listed as “+++ (10,000>FS>1,000)”. For the same compound, the EC50 in assay [5] is 63.1 to 316 nM. Moreover, in assay [7], the “XIAP BIR3 vs BIR2 separation window” value was “++++ (FS>10,000)”.

In the case of `C[C@@H]1CN(CC(=O)N2CC(C)(C)c3[nH]c(=O)c(Cc4ccc(F)cc4)cc32)[C@@H](CN2CCO[C@H](C(=O)NCCOCCNC(=O)[C@@H]3CN(C[C@H]4CN[C@H](C)CN4CC(=O)N4CC(C)(C)c5[nH]c(=O)c(Cc6ccc(F)cc6)cc54)CCO3)C2)CN1` [Compound 138, (2S,2′S)-N,N′-(oxybis(ethane-2,1-diyl))bis(4-(((2R,5R)-1-(2-(6-(4-fluorobenzyl)-3,3-dimethyl-5-oxo-2,3,4,5-tetrahydro-1H-pyrrolo[3,2-b]pyridin-1-yl)-2-oxoethyl)-5-methylpiperazin-2-yl)methyl)morpholine-2-carboxamide)], the IC50 in assay [1] is 1.38 to 7.94 nM; in assay [2] it was 1.38 to 7.94 nM; in assay [3], 1000 to 3160 nM; in assay [4], 10000 to 51300 nM; in assay [6], 1000 to 3160 nM; in assay [7], 7.94 to 15.8 nM. Besides, the “cIAP2 BIR3 vs BIR2 separation window” value in assay [1] is “+++ (10,000>FS>1,000)”. Moreover, the “cIAP1 BIR3 vs BIR2 separation window” value in assay [2] was “+++ (10,000>FS>1,000)”. Moreover, the EC50 in assay [5] was 63.1 to 316 nM. Moreover, the “XIAP BIR3 vs BIR2 separation window” value in assay [7] is on record as “++++ (FS>10,000)”.

Turning to `C[C@@H]1CN(CC(=O)N2CC(C)(C)c3[nH]c(=O)c(Cc4ccc(F)cc4)cc32)[C@@H](CN2CCO[C@H](C(=O)NCC(C)(C)CNC(=O)[C@@H]3CN(C[C@H]4CN[C@H](C)CN4CC(=O)N4CC(C)(C)c5[nH]c(=O)c(Cc6ccc(F)cc6)cc54)CCO3)C2)CN1` [Compound 139, (2S,2′S)-N,N′-(2,2-dimethylpropane-1,3-diyl)bis(4-(((2R,5R)-1-(2-(6-(4-fluorobenzyl)-3,3-dimethyl-5-oxo-2,3,4,5-tetrahydro-1H-pyrrolo[3,2-b]pyridin-1-yl)-2-oxoethyl)-5-methylpiperazin-2-yl)methyl)morpholine-2-carboxamide)], the IC50 in assay [1] was 7.94 to 15.8 nM; in assay [2] it was 7.94 to 15.8 nM; in assay [3] it was 1000 to 3160 nM; in assay [4], 10000 to 51300 nM; in assay [6], 1000 to 3160 nM; in assay [7], 31.6 to 501 nM. Also, the “cIAP2 BIR3 vs BIR2 separation window” value in assay [1] is listed as “+++ (10,000>FS>1,000)”. In addition, the “cIAP1 BIR3 vs BIR2 separation window” value in assay [2] is listed as “+++ (10,000>FS>1,000)”. For the same compound, the EC50 in assay [5] is 63.1 to 316 nM. Also, the “XIAP BIR3 vs BIR2 separation window” value in assay [7] is recorded as “+++ (10,000>FS>1,000)”.
